Data from patent EP4603105A1, “PHARMACEUTICAL COMPOSITION CONTAINING CYCLIC COMPOUND HAVING SELECTIVE KRAS INHIBITORY EFFECT AGAINST HRAS AND NRAS” (CHUGAI SEIYAKU KABUSHIKI KAISHA, priority 2022, dated 2024).
pIC50: −log10 of the molar value. Where a SMILES comes first, the peptide text is derived from it. Bridges are numbered along the chain shown (N, C = ends). [ ]: non-standard residue; d: D form. The star is where a group is joined. hPhe(3-Cl-4-CF3) = N[C@@H](CCc1ccc(C(F)(F)F)c(Cl)c1)C(=O)O; NPrPhe(4-CF3) = CCCN[C@@H](Cc1ccc(C(F)(F)F)cc1)C(=O)O; NEtPhe(4-Me) = CCN[C@@H](Cc1ccc(C)cc1)C(=O)O; NMeGly(cPent) = CN[C@H](C(=O)O)C1CCCC1; Pro(4,4-F2) = O=C(O)[C@@H]1CC(F)(F)CN1; Hyp = O=C(O)[C@@H]1C[C@@H](O)CN1; NMeD = CN[C@@H](CC(=O)O)C(=O)O; NMeL = CN[C@@H](CC(C)C)C(=O)O; Morpholide = C1CN(*)CCO1; Ac5c = NC1(C(=O)O)CCCC1; Ac4c = NC1(C(=O)O)CCC1; Sar = CNCC(=O)O

What was measured:
[1] = system: human lung cancer strain NCI-H441; type: cell-based
Procedure, shortened: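 Step one: dispense the test compound in serial DMSO dilutions. Step three: add the reagent and measure […].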

HRAS wild-type protein = HRAS wild-type protein (Homo sapiens, UniProt P01112); assay: Binding to HRAS by surface plasmon resonance (SPR), KD and KD ratio to KRAS
Procedure, shortened: (§1)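 Running buffer contained 10 µM GDP and 10 mM MgCl2 to keep RAS in the GDP state, with 4% DMSO at pH 7.4. Compounds were flowed at 100 µL/min in 75 s steps of rising concentration over captured biotin-Avi RAS at 30°C. Sensorgrams were fitted 1:1 for KD.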

[2] = molecular target: GDP-bound NRAS wild-type protein (Homo sapiens, UniProt P01111); assay: Binding to NRAS by surface plasmon resonance (SPR), KD and KD ratio to KRAS
Procedure, shortened: as §1

[3] = ratio of the KD value with respect to HRAS wild-type protein to the KD value with respect to KRAS
[4] = ratio of the KD value with respect to GDP-bound NRAS wild-type protein to the KD value with respect to KRAS
[5] = ratio of KD for HRAS wild-type protein to KD for KRAS
[6] = ratio of KD for GDP-bound NRAS wild-type protein to KD for KRAS
[7] = ratio of KD value for HRAS wild-type protein to KD value for KRAS (SPR)
[8] = ratio of KD value for GDP-bound NRAS wild-type protein to KD value for KRAS (SPR)

Sequence of HRAS wild-type protein (P01112 whole entry): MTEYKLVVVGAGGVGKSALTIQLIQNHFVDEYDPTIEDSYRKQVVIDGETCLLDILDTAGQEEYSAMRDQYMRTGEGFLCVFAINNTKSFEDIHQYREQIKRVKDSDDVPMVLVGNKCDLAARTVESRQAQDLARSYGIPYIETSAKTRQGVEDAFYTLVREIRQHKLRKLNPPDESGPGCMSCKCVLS
Sequence of GDP-bound NRAS wild-type protein (P01111 whole entry): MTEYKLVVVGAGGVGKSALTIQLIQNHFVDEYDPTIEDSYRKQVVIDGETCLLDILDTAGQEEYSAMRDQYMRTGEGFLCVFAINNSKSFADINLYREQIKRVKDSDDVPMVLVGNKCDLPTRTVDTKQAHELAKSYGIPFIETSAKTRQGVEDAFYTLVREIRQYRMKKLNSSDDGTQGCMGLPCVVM

SMILES | pIC50 [1] | HRAS /KRAS (HRAS wild-type protein; [3]) | NRAS /KRAS [2, 4] | HRAS /KRAS (HRAS wild-type protein; [5]) | NRAS /KRAS [2, 6] | further results
CCO[C@@H]1C[C@H]2C(=O)NC3(CCC3)C(=O)N(C)[C@@H](C3CCCC3)C(=O)N(C)[C@H](C(=O)N3CCOCC3)CC(=O)N(C)[C@@H](Cc3ccc(C)cc3)C(=O)N[C@@H]([C@@H](C)CC)C(=O)N(C)CC(=O)N(C)[C@H]3CCCCCN(C3=O)[C@@H](Cc3ccc(C(F)(F)F)cc3)C(=O)N(C)CC(=O)N[C@@H](CCc3cc(F)c(C(F)(F)F)c(F)c3)C(=O)N2C1 [PP0933] | 6.82 |  |  | B (a compound having 3 or more and less than 10 is denoted as B) | A (a compound having 10 or more and less than 20 is denoted as A) | 
CCO[C@@H]1C[C@H]2C(=O)NC3(CC(C)(C)C3)C(=O)N(C)[C@@H](C3CCCC3)C(=O)N3CCC[C@@H]3CC(=O)N(C)[C@@H](CC3CC3)C(=O)N[C@@H]([C@@H](C)CC)C(=O)N(C)CC(=O)N(C)[C@H]3C/C=C\CCN(C3=O)[C@@H](Cc3ccc(C(F)(F)F)cc3)C(=O)N(C)CC(=O)N[C@@H](CCc3cc(F)c(C(F)(F)F)c(F)c3)C(=O)N2C1 [PP1611] | 7.55 |  |  |  |  | HRAS /KRAS (HRAS wild-type protein; [7]): B (a compound having 3 or more and less than 10 is denoted as B); NRAS /KRAS [2, 8]: B (a compound having 3 or more and less than 10 is denoted as B)
CCO[C@@H]1C[C@H]2C(=O)NC3(CCC3)C(=O)N(C)[C@@H](C3CCCC3)C(=O)N(C)[C@H](C(=O)N(C)C)CC(=O)N(C)[C@@H](CC)C(=O)N[C@@H]([C@@H](C)CC)C(=O)N(C)CC(=O)N(C)[C@H]3CC(C)=CCN(C3=O)[C@@H](Cc3ccc(C(F)(F)F)cc3)C(=O)N(C)CC(=O)N[C@@H](CCc3cc(F)c(C(F)(F)F)c(F)c3)C(=O)N2C1 [PP1034] | 7.01 |  |  | C (A compound having a KD ratio of 0.1 or more and less than 3 is denoted as C) | C (A compound having a KD ratio of 0.1 or more and less than 3 is denoted as C) | 
CCCN1C(=O)CN(C)C(=O)CN(C)C(=O)[C@H]([C@@H](C)CC)NC(=O)[C@H](CC(C)C)N(C)C(=O)C[C@@H](C(=O)N(C)C)NC(=O)[C@H](C2CCCC2)N(C)C(=O)C2(CCC2)NC(=O)[C@@H]2CC(F)(F)CN2C(=O)[C@H](CCc2ccc(C(F)(F)F)c(Cl)c2)NC(=O)CN(C)C(=O)[C@@H]1Cc1ccc(C(F)(F)F)cc1 [PP0358] ([NMeL]I[Sar][Sar][NPrPhe(4-CF3)][Sar][hPhe(3-Cl-4-CF3)][Pro(4,4-F2)][Ac4c][NMeGly(cPent)]D-NMe2; lactam N-11) | 7.46 |  |  | C (A compound having a KD ratio of 0.1 or more and less than 3 is denoted as C) | B (a compound having 3 or more and less than 10 is denoted as B) | 
CCO[C@@H]1C[C@H]2C(=O)NC3(CCC3)C(=O)N(C)[C@@H](C(CC)CC)C(=O)N(C)[C@H](CC)CC(=O)N(C)[C@@H](CC)C(=O)N[C@@H]([C@@H](C)CC)C(=O)N(C)CC(=O)N(C)[C@H]3C/C=C\CCN(C3=O)[C@@H](Cc3ccc(C(F)(F)F)cc3)C(=O)N(C)CC(=O)N[C@@H](CCc3cc(F)c(C(F)(F)F)c(F)c3)C(=O)N2C1 [PP1624] | 7.25 |  |  |  |  | HRAS /KRAS (HRAS wild-type protein; [7]): A (a compound having 10 or more and less than 20 is denoted as A); NRAS /KRAS [2, 8]: A (a compound having 10 or more and less than 20 is denoted as A)
CCO[C@@H]1C[C@H]2C(=O)NC3(CCC3)C(=O)N(C)[C@@H](C3CCCC3)C(=O)N(C)[C@H](C(=O)N(C)CCOC)CC(=O)N(C)[C@@H](CC(C)C)C(=O)N[C@@H]([C@@H](C)CC)C(=O)N(C)CC(=O)N(C)[C@H]3C/C=C\CCN(C3=O)[C@@H](Cc3ccc(C(F)(F)F)cc3)C(=O)N(C)CC(=O)N[C@@H](CCc3ccc(Cl)c(Cl)c3)C(=O)N2C1 [PP1326] | 7.64 |  |  |  |  | HRAS /KRAS (HRAS wild-type protein; ratio of KD with respect to HRAS wild-type protein to KD with respect to KRAS): A (a compound having 10 or more and less than 20 is denoted as A); NRAS /KRAS ([2]; ratio of KD with respect to GDP-bound NRAS wild-type protein to KD with respect to KRAS): AA (a compound having 20 or more is denoted as AA)

These reach a higher pIC50 [1]. Values come first.

pIC50 [1] | SMILES | HRAS /KRAS (HRAS wild-type protein; [3]) | NRAS /KRAS [2, 4] | HRAS /KRAS (HRAS wild-type protein; [5]) | NRAS /KRAS [2, 6] | further results
8.11 | CCCN(C)C(=O)[C@@H]1CC(=O)N(C)[C@@H](COCC)C(=O)N[C@@H]([C@@H](C)CC)C(=O)N(C)CC(=O)N(C)[C@H]2C/C=C\CCN(C2=O)[C@@H](Cc2ccc(C(F)(F)F)cc2)C(=O)N(C)CC(=O)N[C@@H](CCc2cc(F)c(C(F)(F)F)c(F)c2)C(=O)N2C[C@@H](C)C[C@H]2C(=O)NC2(CC(C)(C)C2)C(=O)N(C)[C@@H](C2CCCC2)C(=O)N1C [PP2041] | A (a compound having 10 or more and less than 20 is denoted as A) | A (a compound having 10 or more and less than 20 is denoted as A) |  |  | 
8.12 | C=CCN1CC(=O)N(C)[C@H]2C/C=C\CCN(C2=O)[C@@H](Cc2ccc(C)cc2)C(=O)N(C)CC(=O)N[C@@H](CCc2cc(F)c(C(F)(F)F)c(F)c2)C(=O)N2C[C@H](OCC)C[C@H]2C(=O)NC2(CC(C)(C)C2)C(=O)N(C)[C@@H](C2CCCC2)C(=O)N(C)[C@H](C(=O)N(C)C)CC(=O)N(C)[C@@H](CC(C)C)C(=O)N[C@@H]([C@@H](C)CC)C1=O [PP2050] | A (a compound having 10 or more and less than 20 is denoted as A) | A (a compound having 10 or more and less than 20 is denoted as A) |  |  | 
8.14 | CCO[C@@H]1C[C@H]2C(=O)NC3(CCCC3)C(=O)N(C)[C@@H](C3CCCC3)C(=O)N(C)[C@H](C(=O)N3CCOCC3)CC(=O)N(C)[C@@H](CC(C)C)C(=O)N[C@@H]([C@@H](C)CC)C(=O)N(C)CC(=O)N(C)CC(=O)N(CC)[C@@H](Cc3ccc(C)cc3)C(=O)N(C)CC(=O)N[C@@H](CCc3ccc(C(F)(F)F)c(Cl)c3)C(=O)N2C1 [PP0042] ([NMeL]I[Sar][Sar][NEtPhe(4-Me)][Sar][hPhe(3-Cl-4-CF3)][Hyp](Et)[Ac5c][NMeGly(cPent)][NMeD]-Morpholide; lactam N-11) |  |  | C (A compound having a KD ratio of 0.1 or more and less than 3 is denoted as C) | C (A compound having a KD ratio of 0.1 or more and less than 3 is denoted as C) | 
7.70 | CCO[C@@H]1C[C@H]2C(=O)NC3(CC(C)(C)C3)C(=O)N(C)[C@@H](C(CC)CC)C(=O)N(C)[C@H](C(=O)N(C)C)CC(=O)N(C)[C@@H](C(C)C)C(=O)N[C@@H]([C@@H](C)CC)C(=O)N(C)CC(=O)N(C)[C@H]3C/C=C\CCN(C3=O)[C@@H](Cc3ccc(C)cc3)C(=O)N(C)CC(=O)N[C@@H](CCc3ccc(C(F)(F)F)c(OC)c3)C(=O)N2C1 [PP2173] | A (a compound having 10 or more and less than 20 is denoted as A) | A (a compound having 10 or more and less than 20 is denoted as A) |  |  | 
8.19 | CCCN(C)C(=O)[C@@H]1CC(=O)N(C)[C@@H](CC)C(=O)N[C@@H]([C@@H](C)CC)C(=O)N(C)CC(=O)N(C)[C@H]2C/C=C\CCN(C2=O)[C@@H](Cc2ccc(C(F)(F)F)cc2)C(=O)N(C)CC(=O)N[C@@H](CCc2cc(F)c(C(F)(F)F)c(F)c2)C(=O)N2C[C@H](OCC)C[C@H]2C(=O)NC2(CC(F)(F)C2)C(=O)N(C)[C@@H](C2CCCC2)C(=O)N1C [PP1732] |  |  |  |  | HRAS /KRAS (HRAS wild-type protein; [7]): A (a compound having 10 or more and less than 20 is denoted as A); NRAS /KRAS [2, 8]: AA (a compound having 20 or more is denoted as AA)
8.62 | CC[C@H](C)[C@@H]1NC(=O)[C@@H]2CCCCCc3ccc(cc3)C[C@@H](C(=O)N(C)CC(=O)N[C@@H](CCc3ccc(C(F)(F)F)c(OC)c3)C(=O)N3CC4(CC4)C[C@H]3C(=O)NC3(CC(C)(C)C3)C(=O)N(C)[C@@H](C3CCCC3)C(=O)N(C)[C@H](C(=O)N(C)C)CC(=O)N2C)N2CC/C=C\C[C@@H](C2=O)N(C)C(=O)CN(C)C1=O [PP3074] |  |  | A (a compound having 10 or more and less than 20 is denoted as A) | A (a compound having 10 or more and less than 20 is denoted as A) | 
8.57 | CCCN(C)C(=O)[C@@H]1CC(=O)N(C)[C@@H](CC(F)F)C(=O)N[C@@H]([C@@H](C)CC)C(=O)N(C)CC(=O)N(C)[C@H]2C/C=C\CCN(C2=O)[C@@H](Cc2ccc(C(F)(F)F)cc2)C(=O)N(C)CC(=O)N[C@@H](CCc2cc(F)c(C(F)(F)F)c(F)c2)C(=O)N2C[C@H](F)C[C@H]2C(=O)NC2(CC(C)(C)C2)C(=O)N(C)[C@@H](C2CCCC2)C(=O)N1C [PP1687] |  |  |  |  | HRAS /KRAS (HRAS wild-type protein; [7]): A (a compound having 10 or more and less than 20 is denoted as A); NRAS /KRAS [2, 8]: A (a compound having 10 or more and less than 20 is denoted as A)
7.87 | CCO[C@@H]1C[C@H]2C(=O)NC3(CC(C)(C)C3)C(=O)N(C)[C@@H](C(CC)CC)C(=O)N(C)[C@H](C(=O)N(C)C)CC(=O)N(C)[C@@H](COC)C(=O)N[C@@H]([C@@H](C)CC)C(=O)N(C)CC(=O)N(C)[C@H]3C/C=C\CCN(C3=O)[C@@H](Cc3ccc(C(F)(F)F)cc3)C(=O)N(C)CC(=O)N[C@@H](CCc3ccc(C(F)(F)F)c(Cl)c3)C(=O)N2C1 [PP2126] | B (a compound having 3 or more and less than 10 is denoted as B) | A (a compound having 10 or more and less than 20 is denoted as A) |  |  | 
8.18 | CCO[C@@H]1C[C@H]2C(=O)NC3(CC(C)(C)C3)C(=O)N(C)[C@@H](C(CC)CC)C(=O)N(C)[C@H](C(=O)N(C)C)CC(=O)N(C)[C@@H](C)C(=O)N[C@@H]([C@@H](C)CC)C(=O)N(C)CC(=O)N(C)[C@H]3C/C=C\CCN(C3=O)[C@@H](Cc3ccc(C)cc3)C(=O)N(C)CC(=O)N[C@@H](CCc3cc(F)c(C(F)(F)F)c(F)c3)C(=O)N2C1 [PP2143] | A (a compound having 10 or more and less than 20 is denoted as A) | A (a compound having 10 or more and less than 20 is denoted as A) |  |  | 
